Reference: paper PMC8286840, “Identifying SARS-CoV-2 antiviral compounds by screening for small molecule inhibitors of Nsp3 papain-like protease” (Biochemical Journal, 2021)
Where a name gives a salt, the structure may show the parent alone. Read-outs that look alike come from different tables or passages of the source.

Key:
[1] = biological target: T1, SARS-CoV-2 PLpro (nsp3 1564–1878) (Severe acute respiratory syndrome coronavirus 2, UniProt P0DTD1); test: biochemical; set-up: FRET-quenched peptide (Pro3) cleavage by PLpro, 10 min pre-incubation, slope over 20 min, normalised to no-compound control; conditions: read-out: % of control remaining
[2] = biological target: T1, SARS-CoV-2 PLpro (nsp3 1564–1878); test: biochemical; set-up: FRET-quenched peptide (Pro3) cleavage by PLpro, 10 min pre-incubation, slope over 20 min, normalised to no-compound control; conditions: read-out: % of control remaining; remark: listed apart in the source

SMILES: c1ccc2c(c1)[nH]c1cnccc12 [Norharmane]
- remaining activity at 3.75 µM ([1]; Well no.=3262, high concentration screen): 98.5%
- remaining activity at 1.25 µM ([2]; Well no.=3262, low concentration screen): 101%

SMILES: CNCCC=C1c2ccccc2CCc2ccccc21 [Nortriptyline hydrochloride]
- remaining activity at 3.75 µM ([1]; Well no.=1097, high concentration screen): 96.6%
- remaining activity at 1.25 µM ([2]; Well no.=1097, low concentration screen): 95.3%

SMILES: COc1ccc2c(c1OC)C(=O)O[C@@H]2[C@H]1c2c(cc3c(c2OC)OCO3)CCN1C [Noscapine hydrchloride]
- remaining activity at 3.75 µM ([1]; Well no.=957, high concentration screen): 95.4%
- remaining activity at 1.25 µM ([2]; Well no.=957, low concentration screen): 93%

SMILES: COc1ccc2c(c1OC)C(=O)O[C@@H]2[C@H]1c2c(cc3c(c2OC)OCO3)CCN1C [Noscapine]
- remaining activity at 3.75 µM ([1]; Well no.=6613, high concentration screen): 106%
- remaining activity at 1.25 µM ([2]; Well no.=6613, low concentration screen): 106%

SMILES: COc1cc2c3c(c1OC)-c1ccccc1C[C@H]3N(C)CC2 [Nuciferine]
- remaining activity at 3.75 µM ([1]; Well no.=8335, high concentration screen): 89%
- remaining activity at 1.25 µM ([2]; Well no.=8335, low concentration screen): 95.2%

SMILES: COc1ccc(C2=N[C@@H](c3ccc(Cl)cc3)[C@@H](c3ccc(Cl)cc3)N2C(=O)N2CCNC(=O)C2)c(OC(C)C)c1 [Nutlin (3)]
- remaining activity at 3.75 µM ([1]; Well no.=6356, high concentration screen): 101%
- remaining activity at 3.75 µM ([1]; Well no.=7836, high concentration screen): 99.3%
- remaining activity at 1.25 µM ([2]; Well no.=6356, low concentration screen): 98.9%
- remaining activity at 1.25 µM ([2]; Well no.=7836, low concentration screen): 103%

SMILES: COc1ccc(C2=N[C@@H](c3ccc(Cl)cc3)[C@@H](c3ccc(Cl)cc3)N2C(=O)N2CCNC(=O)C2)c(OC(C)C)c1 [Nutlin (3a)]
- remaining activity at 3.75 µM ([1]; Well no.=6440, high concentration screen): 93.4%
- remaining activity at 3.75 µM ([1]; Well no.=7746, high concentration screen): 93.2%
- remaining activity at 1.25 µM ([2]; Well no.=6440, low concentration screen): 92.9%
- remaining activity at 1.25 µM ([2]; Well no.=7746, low concentration screen): 92%

SMILES: COc1ccc(C2=N[C@H](c3ccc(Cl)cc3)[C@H](c3ccc(Cl)cc3)N2C(=O)N2CCNC(=O)C2)c(OC(C)C)c1 [Nutlin (3b)]
- remaining activity at 3.75 µM ([1]; Well no.=6742, high concentration screen): 100%
- remaining activity at 1.25 µM ([2]; Well no.=6742, low concentration screen): 100%
- remaining activity at 1.25 µM ([2]; Well no.=8362, low concentration screen): 101%

SMILES: COc1ccc(C2=N[C@@H](c3ccc(Cl)cc3)[C@@H](c3ccc(Cl)cc3)N2C(=O)N2CCNC(=O)C2)c(OC(C)C)c1 [Nutlin-3]
- remaining activity at 3.75 µM ([1]; Well no.=4621, high concentration screen): 108%
- remaining activity at 1.25 µM ([2]; Well no.=4621, low concentration screen): 104%

SMILES: CC(CCc1ccccc1)NC(C)C(O)c1ccc(O)cc1 (stereo not shown) [Nylidrin hydrochloride]
- remaining activity at 3.75 µM ([1]; Well no.=940, high concentration screen): 95.1%
- remaining activity at 1.25 µM ([2]; Well no.=940, low concentration screen): 96%

SMILES: C[C@@H]1[C@H](O)[C@@H](C)/C=C/C=C/CC/C=C/C=C/C=C/C=C/[C@H](O[C@@H]2O[C@H](C)[C@@H](O)[C@H](N)[C@@H]2O)C[C@@H]2O[C@](O)(C[C@@H](O)[C@H](O)CC[C@@H](O)C[C@@H](O)C[C@@H](O)CC(=O)O[C@H]1C)C[C@H](O)[C@H]2C(=O)O [Nystatin]
- remaining activity at 3.75 µM ([1]; Well no.=2045, high concentration screen): 100%
- remaining activity at 1.25 µM ([2]; Well no.=2045, low concentration screen): 97.9%

SMILES: O=C(NCCO)c1cc(C(=O)NCCO)cc(C(=O)NCCO)c1 [N~1~,N~3~,N~5~-tris(2-hydroxyethyl)-1,3,5-benzenetricarboxamide]
- remaining activity at 3.75 µM ([1]; Well no.=6029, high concentration screen): 99.9%
- remaining activity at 1.25 µM ([2]; Well no.=6029, low concentration screen): 96.8%

SMILES: CC1(C)CC(NC(=O)C(=O)Nc2ccc(Cl)cc2)CC(C)(C)N1 [N~1~-(4-chlorophenyl)-N~2~-(2,2,6,6-tetramethyl-4-piperidinyl)ethanediamide]
- remaining activity at 3.75 µM ([1]; Well no.=6039, high concentration screen): 101%
- remaining activity at 1.25 µM ([2]; Well no.=6039, low concentration screen): 97.6%

SMILES: Nc1nc(OCc2ccccc2)c2nc[nH]c2n1 [O6-benzylguanine]
- remaining activity at 3.75 µM ([1]; Well no.=123, high concentration screen): 105%
- remaining activity at 1.25 µM ([2]; Well no.=123, low concentration screen): 106%

SMILES: NOCC(=O)O [O-(Carboxymethyl)hydroxylamine hemihydrochloride]
- remaining activity at 3.75 µM ([1]; Well no.=15, high concentration screen): 102%
- remaining activity at 1.25 µM ([2]; Well no.=15, low concentration screen): 103%

SMILES: CC(=O)OC[C@H](N)C(=O)O [O-Acetylserine]
- remaining activity at 3.75 µM ([1]; Well no.=6965, high concentration screen): 104%
- remaining activity at 1.25 µM ([2]; Well no.=6965, low concentration screen): 101%

SMILES: COc1ccc2[nH]cc(CCN)c2c1 [O-Methylserotonin hydrochloride]
- remaining activity at 3.75 µM ([1]; Well no.=1076, high concentration screen): 97%
- remaining activity at 1.25 µM ([2]; Well no.=1076, low concentration screen): 94%

SMILES: N[C@@H](COP(=O)(O)O)C(=O)O [O-Phospho-L-serine]
- remaining activity at 3.75 µM ([1]; Well no.=806, high concentration screen): 95.7%
- remaining activity at 3.75 µM ([1]; Well no.=6867, high concentration screen): 99.4%
- remaining activity at 3.75 µM ([1]; Well no.=6956, high concentration screen): 101%
- remaining activity at 1.25 µM ([2]; Well no.=806, low concentration screen): 98%
- remaining activity at 1.25 µM ([2]; Well no.=6867, low concentration screen): 99.1%
- remaining activity at 1.25 µM ([2]; Well no.=6956, low concentration screen): 101%

SMILES: CCN(CCCCO)C(C)Cc1ccc(O)cc1 (stereo not shown) [O-desmethyl Mebeverine alcohol (hydrochloride)]
- remaining activity at 3.75 µM ([1]; Well no.=8489, high concentration screen): 99.4%
- remaining activity at 1.25 µM ([2]; Well no.=8489, low concentration screen): 94.7%

SMILES: Cc1c(Cc2ccc3ccccc3n2)c2cc(F)ccc2n1CC(=O)O [OC000459]
- remaining activity at 3.75 µM ([1]; Well no.=7765, high concentration screen): 105%
- remaining activity at 1.25 µM ([2]; Well no.=7765, low concentration screen): 108%

SMILES: COc1cc(C(=O)N(CCCc2ccccc2)Cc2ccc(CC(=O)O)cc2)cc(OC)c1C [ONO-7300243]
- remaining activity at 3.75 µM ([1]; Well no.=7711, high concentration screen): 103%
- remaining activity at 1.25 µM ([2]; Well no.=7711, low concentration screen): 101%

SMILES: CC(C(=O)Nc1cc(C#N)ccc1CCCC(=O)O)c1ccc(F)c2ccccc12 (stereo not shown) [ONO-AE3-208]
- remaining activity at 3.75 µM ([1]; Well no.=7279, high concentration screen): 94.1%
- remaining activity at 1.25 µM ([2]; Well no.=7279, low concentration screen): 98.9%

SMILES: COc1ccc(C[C@H](NC(=O)[C@H](C)NC(=O)CN2CCOCC2)C(=O)N[C@@H](Cc2ccccc2)C(=O)[C@@]2(C)CO2)cc1 [ONX-0914 (PR-957)]
- remaining activity at 3.75 µM ([1]; Well no.=9126, high concentration screen): 93.6%
- remaining activity at 1.25 µM ([2]; Well no.=9126, low concentration screen): 90%

SMILES: COc1cccc2cc(-c3nc([C@H]4CC[C@H](C(=O)O)CC4)n4ncnc(N)c34)[nH]c12 [OSI-027]
- remaining activity at 3.75 µM ([1]; Well no.=4960, high concentration screen): 95.6%
- remaining activity at 1.25 µM ([2]; Well no.=4960, low concentration screen): 99.2%

SMILES: C#Cc1cccc(Nc2ncnc3cc(OCCOC)c(OCCO)cc23)c1 [OSI-420]
- remaining activity at 3.75 µM ([1]; Well no.=4822, high concentration screen): 101%
- remaining activity at 3.75 µM ([1]; Well no.=5152, high concentration screen): 97.4%
- remaining activity at 1.25 µM ([2]; Well no.=4822, low concentration screen): 99.2%
- remaining activity at 1.25 µM ([2]; Well no.=5152, low concentration screen): 102%

SMILES: O=C(Nc1ccc(OC(F)(F)F)cc1)c1sccc1NCc1ccnc2ccccc12 [OSI-930]
- remaining activity at 3.75 µM ([1]; Well no.=4755, high concentration screen): 103%
- remaining activity at 1.25 µM ([2]; Well no.=4755, low concentration screen): 105%

SMILES: CNC(=O)CCc1cc(-c2ccc(-c3ccc(C(F)(F)F)cc3)cc2)nn1-c1ccc(N2CCNCC2)cc1 [OSU-T315]
- remaining activity at 3.75 µM ([1]; Well no.=7022, high concentration screen): 93.8%
- remaining activity at 1.25 µM ([2]; Well no.=7022, low concentration screen): 92.9%

SMILES: COC1=CC(c2cc3ccccc3[nH]2)=N/C1=C\c1[nH]c(C)cc1C [Obatoclax mesylate (GX15-070)]
- remaining activity at 3.75 µM ([1]; Well no.=4619, high concentration screen): 98.7%
- remaining activity at 1.25 µM ([2]; Well no.=4619, low concentration screen): 95.3%

SMILES: CC[C@H]1[C@@H](O)[C@@H]2[C@H](CC[C@]3(C)[C@@H]([C@H](C)CCC(=O)O)CC[C@@H]23)[C@@]2(C)CC[C@@H](O)C[C@@H]12 [Obeticholic Acid]
- remaining activity at 3.75 µM ([1]; Well no.=8720, high concentration screen): 93%
- remaining activity at 1.25 µM ([2]; Well no.=8720, low concentration screen): 90.8%

SMILES: C[C@@H]1Cc2c(Cl)cc(C(=O)N[C@@H](Cc3ccccc3)C(=O)O)c(O)c2C(=O)O1 [Ochratoxin A]
- remaining activity at 3.75 µM [1]: 92.8%
- remaining activity at 1.25 µM [2]: 92.5%

SMILES: CCCCCCCCCCCCCCCCCC(=O)O [Octadecanoic acid]
- remaining activity at 3.75 µM ([1]; Well no.=4314, high concentration screen): 96.8%
- remaining activity at 1.25 µM ([2]; Well no.=4314, low concentration screen): 101%
